Measured values taken from US6649398B2, “Method for inducing bacterial growth using autoinducers” (University of Leicester, priority 1997, dated 2003).

Legend:
[1] = system: Acinetobacter lwoffii; assay: Growth response in serum-SAPI medium (CFU/ml); format: cell-based; settings: control 1.0 × 10^4
Experimental: (§1) Bacteria (approximately 50-500 cfu/ml) are inoculated into SAPI minimal medium (6.25 mM NH4NO3, 1.84 mM KH2PO4, 3.35 mM KCl, 1.01 mM MgSO4 and 2.77 mM glucose, pH 7.5) supplemented with 30% (v/v) adult bovine serum (Sigma), and either 1% (v/v) previously made E.coli autoinducer or 50 mM norepinephrine.
(§2) The cultures are grown statically (i.e. without aeration by shaking) for 24 hours at 37° C. in a 5% CO2 incubator.
(§3) It has been shown that certain of these bacteria respond to norepinephrine (NE) and synthesise their own autoinducers, all of which are heat-stable low molecular weight molecules (less than 1000 Da) similar in size to the E. coli autoinducer (Table 4, FIG. 5).

[2] = system: Citrobacter freundii; assay: Growth response in serum-SAPI medium (CFU/ml); format: cell-based; settings: control 1.9 × 10^6
Experimental: as §1, §2, §3

[3] = system: Enterobacter aerogenes; assay: Growth response in serum-SAPI medium (CFU/ml); format: cell-based; settings: control 3.2 × 10^8
Experimental: as §1, §2, §3

[4] = system: Enterobacter agglomerans; assay: Growth response in serum-SAPI medium (CFU/ml); format: cell-based; settings: control 2.9 × 10^4
Experimental: as §1, §2, §3

[5] = system: Enterobacter cloacae; assay: Growth response in serum-SAPI medium (CFU/ml); format: cell-based; settings: control 7.2 × 10^6
Experimental: as §1, §2, §3

[6] = system: Enterobacter sakazaki; assay: Growth response in serum-SAPI medium (CFU/ml); format: cell-based; settings: control 3.0 × 10^6
Experimental: as §1, §2, §3

[7] = system: Enterococcus faecalis; assay: Growth response in serum-SAPI medium (CFU/ml); format: cell-based; settings: control 5.0 × 10^5
Experimental: as §1, §2, §3

[8] = system: Enterococcus faecium; assay: Growth response in serum-SAPI medium (CFU/ml); format: cell-based; settings: control 2.1 × 10^5
Experimental: as §1, §2, §3

[9] = system: Escherichia coli; assay: Growth response in serum-SAPI medium (CFU/ml); format: cell-based; settings: control 7.5 × 10^4
Experimental: as §1, §2, §3

[10] = system: Hafnia alvei; assay: Growth response in serum-SAPI medium (CFU/ml); format: cell-based; settings: control 1.2 × 10^4
Experimental: as §1, §2, §3

[11] = system: Klebsiella oxytoca; assay: Growth response in serum-SAPI medium (CFU/ml); format: cell-based; settings: control 4.2 × 10^4
Experimental: as §1, §2, §3

[12] = system: Klebsiella pneumoniae; assay: Growth response in serum-SAPI medium (CFU/ml); format: cell-based; settings: control 3.1 × 10^4
Experimental: as §1, §2, §3

[13] = system: Listeria monocytogenes; assay: Growth response in serum-SAPI medium (CFU/ml); format: cell-based; settings: control 2.5 × 10^5
Experimental: as §1, §2, §3

[14] = system: Morganella morganii; assay: Growth response in serum-SAPI medium (CFU/ml); format: cell-based; settings: control 3.7 × 10^4
Experimental: as §1, §2, §3

[15] = system: Proteus mirabilis; assay: Growth response in serum-SAPI medium (CFU/ml); format: cell-based; settings: control 1.1 × 10^3
Experimental: as §1, §2, §3

[16] = system: Pseudomonas aeruginosa; assay: Growth response in serum-SAPI medium (CFU/ml); format: cell-based; settings: control 3.7 × 10^4
Experimental: as §1, §2, §3

[17] = system: Salmonella enterica sv Enteriditis; assay: Growth response in serum-SAPI medium (CFU/ml); format: cell-based; settings: control 7.5 × 10^5
Experimental: as §1, §2, §3

[18] = system: Serratia marcescens; assay: Growth response in serum-SAPI medium (CFU/ml); format: cell-based; settings: control 8.5 × 10^7
Experimental: as §1, §2, §3

[19] = system: Staphylococcus albus; assay: Growth response in serum-SAPI medium (CFU/ml); format: cell-based; settings: control 1.1 × 10^3
Experimental: as §1, §2, §3

[20] = system: Staphylococcus aureus; assay: Growth response in serum-SAPI medium (CFU/ml); format: cell-based; settings: control 3.2 × 10^5
Experimental: as §1, §2, §3

[21] = system: Streptococcus dysgalactiae; assay: Growth response in serum-SAPI medium (CFU/ml); format: cell-based; settings: control 2.0 × 10^7
Experimental: as §1, §2, §3

[22] = system: Streptococcus sanguis; assay: Growth response in serum-SAPI medium (CFU/ml); format: cell-based; settings: control 2.1 × 10^4
Experimental: as §1, §2, §3

[23] = system: Xanthomonas maltophilia; assay: Growth response in serum-SAPI medium (CFU/ml); format: cell-based; settings: control 1.7 × 10^5
Experimental: as §1, §2, §3

[24] = system: Yersinia entercolitica; assay: Growth response in serum-SAPI medium (CFU/ml); format: cell-based; settings: control 4.2 × 10^4
Experimental: as §1, §2, §3

[25] = system: bacteria; assay: Growth stimulation assay (serum assay); format: cell-based; settings: for Stimulation of growth and autoinducer production in serum assay: equivalent mM concentrations
[26] = cited from earlier work

NC[C@H](O)c1ccc(O)c(O)c1 [NE, norepinephrine]
Response (growth), CFU/ml [1]: 2.9 × 10^7 CFU/ml
Response (growth), CFU/ml [2]: 3.5 × 10^7 CFU/ml
Response (growth), CFU/ml [3]: 5.5 × 10^8 CFU/ml
Response (growth), CFU/ml [4]: 6.1 × 10^6 CFU/ml
Response (growth), CFU/ml [5]: 1.1 × 10^8 CFU/ml
Response (growth), CFU/ml [6]: 4.1 × 10^7 CFU/ml
Response (growth), CFU/ml [7]: 5.5 × 10^6 CFU/ml
Response (growth), CFU/ml [8]: 5.6 × 10^6 CFU/ml
Response (growth), CFU/ml [9]: 5.9 × 10^8 CFU/ml
Response (growth), CFU/ml [10]: 3.7 × 10^8 CFU/ml
Response (growth), CFU/ml [11]: 1.6 × 10^8 CFU/ml
Response (growth), CFU/ml [12]: 6.7 × 10^7 CFU/ml
Response (growth), CFU/ml [13]: 3.5 × 10^6 CFU/ml
Response (growth), CFU/ml [14]: 1.6 × 10^7 CFU/ml
Response (growth), CFU/ml [15]: 1.0 × 10^7 CFU/ml
Response (growth), CFU/ml [16]: 2.1 × 10^7 CFU/ml
Response (growth), CFU/ml [17]: 1.0 × 10^8 CFU/ml
Response (growth), CFU/ml [18]: 3.4 × 10^8 CFU/ml
Response (growth), CFU/ml [19]: 1.5 × 10^7 CFU/ml
Response (growth), CFU/ml [20]: 5.7 × 10^5 CFU/ml
Response (growth), CFU/ml [21]: 2.4 × 10^6 CFU/ml
Response (growth), CFU/ml [22]: 1.1 × 10^4 CFU/ml
Response (growth), CFU/ml [23]: 2.1 × 10^6 CFU/ml
Response (growth), CFU/ml [24]: 1.7 × 10^8 CFU/ml

CCN(CC)CC.O=C(O)O [TEAB, triethylammonium bicarbonate]
Inhibition in the growth stimulation assays ([25]; concentrations up to 20 mM): not inhibitory

CC(=O)O [acetate]
Stimulation of growth and autoinducer production in serum assay [25]: not

Cl.N [ammonium chloride]
Stimulation of growth and autoinducer production in serum assay [25]: not

N.N.O=S(=O)(O)O [ammonium sulfate]
Stimulation of growth and autoinducer production in serum assay [25]: can stimulate growth and autoinducer production

O=C(O)O [bicarbonate]
Stimulation of growth and autoinducer production in serum assay [25]: not

O=C(N[C@H]1COC(=O)[C@@H](NC(=O)c2cccc(O)c2O)COC(=O)[C@@H](NC(=O)c2cccc(O)c2O)COC1=O)c1cccc(O)c1O [enterochelin]
Solubility in organic solvents [26]: soluble in organic solvents

O=CO [formate]
Stimulation of growth and autoinducer production in serum assay [25]: not
